Source: patent US11084852B2, “Ubiquitin interacting motif peptides as therapeutics” (OKLAHOMA MEDICAL RESEARCH FOUNDATION, priority 2015, dated 2021)
Positions of bridges follow the written chain, without caps; N, C: chain ends. Non-standard residues stand in square brackets, D forms with d. Residues, ends and D or L forms follow the SMILES beside them.

Assay: Toxicity analysis of UPI peptide, plasma biomarkers
Format: in vivo, mice
Set-up: ALB: unit not given here
Conditions: for ALB: wild type mice, i.v. every second day up to 3 months
Method: Age and gender matched wild type mice were intravenously injected with PBS (Control) or different concentration of UPI peptide every second day for up to 3 months. Plasma biochemical parameters were evaluated by the UT-Southwestern Medical Center Core Facility in Dallas, Tex.

SMILES: CC[C@@H](C)[C@@H](NC(=O)[C@@H](CS)NC(=O)CNC(=O)[C@@H](CCSC)NC(=O)[C@@H](CCC(=O)O)NC(=O)[C@@H](CCC(=O)O)NC(=O)[C@@H](CCCCN)NC(=O)[C@@H](CO)NC(=O)[C@@H](CCSC)NC(=O)[C@@H](C)NC(=O)[C@@H](CC(C)C)NC(=O)[C@@H](C)NC(=O)[C@@H](CC(C)C)NC(=O)[C@@H](CCC(N)=O)NC(=O)[C@@H](CC(C)C)NC(=O)[C@@H](CCC(N)=O)NC(=O)[C@@H](CC(C)C)NC(=O)[C@@H](CCC(=O)O)NC(=O)[C@@H](CCC(=O)O)NC(=O)[C@@H](CCC(=O)O)NC(=O)CNC(=O)[C@H](N)CO)C(=O)N[C@H](CCCCN)C(=O)N[C@H](CO)C(=O)N[C@H](CCCCN)C(=O)N[C@H](CCCNC(=N)N)C(=O)N[C@H](CCCCN)C(=O)N[C@@H]1CSSC[C@H](C(=O)O)NC(=O)[C@@H](CC(=O)O)NC(=O)[C@H]2CCCN2C(=O)CNC(=O)[C@@H](CCCCN)NC(=O)[C@@H](CC(=O)O)NC(=O)CNC(=O)[C@@H](CCCNC(=N)N)NC1=O [UPI peptide] (H-[dS]G[dE][dE][dE][dL][dQ][dL][dQ][dL][dA][dL][dA][dM][dS][dK][dE][dE][dM]G[dC][dI][dK][dS][dK][dR][dK][dC][dR]G[dD][dK]G[dP][dD][dC]-OH; disulfide 28-36; N-terminus and C-terminus assumed)
- ALT (10 mg/kg): 63.5 ± 10.8 U/L
- AST (10 mg/kg): 62.3 ± 3.6 U/L
- BUN (10 mg/kg): 18.0 ± 0.8 mg/dL
- CK (10 mg/kg): 163.5 ± 50.0 U/L
- CREA (10 mg/kg): 0.173 ± 0.02 mg/dL
- GGT (10 mg/kg): <5 U/L
- LDH (10 mg/kg): 397.8 ± 26.0 U/L
- TBIL (10 mg/kg): <0.01 mg/dL
- ALT (25 mg/kg): 65.3 ± 4.0 U/L
- AST (25 mg/kg): 55.0 ± 5.3 U/L
- BUN (25 mg/kg): 18.7 ± 2.5 mg/dL
- CK (25 mg/kg): 165.7 ± 8.6 U/L
- CREA (25 mg/kg): 0.160 ± 0.02 mg/dL
- GGT (25 mg/kg): <5 U/L
- LDH (25 mg/kg): 365.7 ± 77.9 U/L
- TBIL (25 mg/kg): <0.01 mg/dL
- ALT (50 mg/kg): 71.7 ± 6.0 U/L
- AST (50 mg/kg): 52.0 ± 4.4 U/L
- BUN (50 mg/kg): 21.0 ± 2.0 mg/dL
- CK (50 mg/kg): 153.7 ± 33.9 U/L
- CREA (50 mg/kg): 0.180 ± 0.02 mg/dL
- GGT (50 mg/kg): <5 U/L
- LDH (50 mg/kg): 481.5 ± 12.1 U/L
- TBIL (50 mg/kg): <0.01 mg/dL
- kidney, liver or muscle functions (biomarker analysis, PBS vs UPI peptide-treated mice) (Table 3): no statistical differences in kidney, liver or muscle functions
- ALB (10 mg/kg): 1.98 ± 0.1
- ALB (25 mg/kg): 2.0 ± 0.1
- ALB (50 mg/kg): 2.2 ± 0.2
